Consider one molecule from paper PMC10687071 (The Journal of Biological Chemistry, 2023).

The target of experiment [1] is T1, V80G mutant EAG1 channels (Mus musculus, UniProt Q60603, V80G).
T1 construct: expressed in transfected cells; host or cells: Xenopus laevis oocytes injected with cRNA
T1 sequence (Q60603 1-989 V80G): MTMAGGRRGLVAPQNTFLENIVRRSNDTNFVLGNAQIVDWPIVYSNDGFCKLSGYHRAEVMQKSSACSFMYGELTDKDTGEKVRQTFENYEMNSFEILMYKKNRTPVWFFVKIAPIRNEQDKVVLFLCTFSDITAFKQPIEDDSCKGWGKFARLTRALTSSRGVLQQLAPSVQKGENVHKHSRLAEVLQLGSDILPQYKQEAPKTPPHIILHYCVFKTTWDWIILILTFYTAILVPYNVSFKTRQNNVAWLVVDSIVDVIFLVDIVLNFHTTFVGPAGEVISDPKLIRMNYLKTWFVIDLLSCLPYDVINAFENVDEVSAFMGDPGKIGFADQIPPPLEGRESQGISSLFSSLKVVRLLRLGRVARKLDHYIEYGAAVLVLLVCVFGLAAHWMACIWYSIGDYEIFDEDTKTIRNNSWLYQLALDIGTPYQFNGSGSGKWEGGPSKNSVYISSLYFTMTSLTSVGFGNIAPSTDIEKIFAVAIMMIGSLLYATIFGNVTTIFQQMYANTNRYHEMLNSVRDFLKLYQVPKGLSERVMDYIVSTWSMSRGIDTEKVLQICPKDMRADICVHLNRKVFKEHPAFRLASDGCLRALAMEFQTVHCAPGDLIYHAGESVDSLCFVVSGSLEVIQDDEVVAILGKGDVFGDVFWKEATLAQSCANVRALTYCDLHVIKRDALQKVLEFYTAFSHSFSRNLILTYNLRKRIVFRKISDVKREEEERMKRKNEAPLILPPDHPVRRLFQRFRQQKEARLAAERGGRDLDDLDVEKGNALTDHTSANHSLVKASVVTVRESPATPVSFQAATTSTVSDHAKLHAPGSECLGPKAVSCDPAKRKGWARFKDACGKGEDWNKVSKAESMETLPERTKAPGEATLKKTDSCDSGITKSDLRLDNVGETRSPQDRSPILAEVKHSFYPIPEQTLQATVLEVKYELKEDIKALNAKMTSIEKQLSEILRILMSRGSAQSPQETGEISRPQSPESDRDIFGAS
As to the kind of experiment: TEVC recording, imipramine inhibition, V80G mutant. It is filed as cell-based. As to conditions: V80G mutant EAG1 channel, +50 mV. The source says: (§1) The cDNA encoding wild-type (WT) mouse EAG1 channels in pGH19 vector was kindly provided by G. Robertson (University of Wisconsin-Madison, Madison, WI). The mutant ΔPAS EAG1 channel in pGH19 with the deletion of the PAS domain residues 2 to 130 was generated by Bio Basic Inc and verified by DNA sequencing (Genewiz). Mutant EAG1 channels with single amino acid substitutions were generated by Genewiz and verified by DNA sequencing. cRNA was transcribed using the T7 mMessage mMachine kit (Thermo Fisher Scientific). Defolliculated Xenopus laevis oocytes were purchased from Ecocyte Bioscience or Xenopus1 and injected with the cRNA using a Nanoinject II oocyte injector (Drummond).
(§2) For EAG1 current recordings, oocytes were placed into a handmade chamber containing a bath solution for the current recording. The currents were recorded using a TEVC technique with OC-725C amplifier (Warner Instruments) and pClamp11 software (Molecular Devices). The signals were digitized using Digidata 1550 (Molecular Devices). Patch pipettes were pulled from borosilicate glass and had resistances of 0.7 to 1.5 MΩ. The recording (bath) solution contained 96 mM NaCl, 4 mM KCl, 0.1 mM CaCl2, 1.8 mM MgCl2, and 5 mM HEPES, pH 7.5. The pipette solution contained 3 M KCl. […]

In experiment [2] the target is T2, Y71V mutant EAG1 channels (Mus musculus, UniProt Q60603, Y71V).
T2 construct: expressed in transfected cells; host or cells: Xenopus laevis oocytes injected with cRNA
T2 sequence (Q60603 1-989 Y71V): T1 sequence (Q60603 1-989 V80G) with Y71V, G80V
As to the kind of experiment: TEVC recording, imipramine inhibition, Y71V mutant. It is filed as cell-based. As to conditions: Y71V mutant EAG1 channel, +50 mV.
Excerpt: as §1, §2

One may read the IC50 as the concentration at which inhibition is half-maximal. Higher therefore signals weaker potency in that assay.

Where a chain is given by its changes, count along the chain named.

Turning to `CN(C)CCCN1c2ccccc2CCc2ccccc21` [imipramine], the IC50 stood at 57.1 ± 3.1 µM in experiment [1] and 31.3 ± 1.8 µM in experiment [2].
